Source: US20230398130A1, “METHODS AND COMPOSITIONS FOR DIFFERENTIATING STEM CELLS” (Massachusetts Institute of Technology, priority 2020, published 2023)

Key:
ISC-enriched organoids [1] = experiment: Primary screen, 384-well 2.5-D organoid differentiation (ENR+CD, 6 days): basal lysozyme secretion (LYZ.NS); type: cell-based, murine; details: for Dose.FC.LYZ.NS: ENR+CD, 6 days, FC vs plate median; for Z.LYZ.NS: standard z score of FC; for Z.LYZ.NS (standard z score) / Dose.FC.LYZ.NS (log 2 fold change): primary screen; for Dose.FC.LYZ.NS (log 2 fold change): vs plate median
Text: (§1) High-throughput screening.

ISC-enriched organoids [2] = experiment: Primary screen, 384-well 2.5-D organoid differentiation (ENR+CD, 6 days): carbachol-induced lysozyme secretion (LYZ.S); type: cell-based, murine; details: for Dose.FC.LYZ.S: ENR+CD, 6 days, FC vs plate median; for Dose.FC.LYZ.S (log 2 fold change): primary screen, vs plate median
Text: as §1

ISC-enriched organoids [3] = experiment: Primary screen, 384-well 2.5-D organoid differentiation (ENR+CD, 6 days, Target Selective Inhibitor Library, vs whole-plate median): ATP (CellTiter-Glo 3D, CTG); details: for Dose.FC.CTG: ENR+CD, 6 days, FC vs plate median; for Z.CTG: standard z score of FC; for Z.CTG (standard z score) / Dose.FC.CTG (log 2 fold change): primary screen; for Dose.FC.CTG (log 2 fold change): vs plate median

Row | Compound | Dose.FC.LYZ.NS (ISC-enriched organoids [1]; Dose 0.08 uM) [log 2 fold change] | Z.LYZ.NS (ISC-enriched organoids [1]; Dose 0.08 uM) | Dose.FC.LYZ.NS (ISC-enriched organoids [1]; Dose 0.40 uM) [log 2 fold change] | Z.LYZ.NS (ISC-enriched organoids [1]; Dose 0.40 uM) | Dose.FC.LYZ.NS (ISC-enriched organoids [1]; Dose 2.00 uM) [log 2 fold change] | Z.LYZ.NS (ISC-enriched organoids [1]; Dose 2.00 uM) | Dose.FC.LYZ.NS (ISC-enriched organoids [1]; Dose 10.00 uM) [log 2 fold change] | Z.LYZ.NS (ISC-enriched organoids [1]; Dose 10.00 uM) | Dose.FC.LYZ.S (ISC-enriched organoids [2]; Dose 0.08 uM) [log 2 fold change] | Dose.FC.LYZ.S (ISC-enriched organoids [2]; Dose 0.40 uM) [log 2 fold change] | Dose.FC.LYZ.S (ISC-enriched organoids [2]; Dose 2.00 uM) [log 2 fold change] | Dose.FC.LYZ.S (ISC-enriched organoids [2]; Dose 10.00 uM) [log 2 fold change] | Dose.FC.CTG (ISC-enriched organoids [3]; Dose 0.08 uM) [log 2 fold change] | Z.CTG (ISC-enriched organoids [3]; Dose 0.08 uM) | Dose.FC.CTG (ISC-enriched organoids [3]; Dose 0.40 uM) [log 2 fold change] | Z.CTG (ISC-enriched organoids [3]; Dose 0.40 uM) | Dose.FC.CTG (ISC-enriched organoids [3]; Dose 2.00 uM) [log 2 fold change] | Z.CTG (ISC-enriched organoids [3]; Dose 2.00 uM) | Dose.FC.CTG (ISC-enriched organoids [3]; Dose 10.00 uM) [log 2 fold change] | Z.CTG (ISC-enriched organoids [3]; Dose 10.00 uM) | other results
1 | O=c1[nH]c2ccc(Cl)cc2c(N[C@@H]2CN3CCC2CC3)c1-c1nc2ccccc2[nH]1 [CHIR-124] | −0.155 | −1.352 | −0.240 | −2.090 | −0.220 | −1.916 | −0.140 | −1.223 | −0.267 | −0.339 | −0.352 | −0.332 | −0.256 | −0.612 | −0.853 | −2.038 | −0.861 | −2.057 | −1.555 | −3.714 | –
2 | Cc1cc(NC(=O)Nc2ccc(N(C)C)cc2)c2cc(F)cc(F)c2n1 [SB408124] | – | – | – | – | – | – | – | – | – | – | – | – | – | – | – | – | – | – | – | – | Z.LYZ.NS (standard z score) (ISC-enriched organoids [1]; Dose 0.08 uM): 1.494; Dose.FC.LYZ.NS (log 2 fold change) (ISC-enriched organoids [1]; Dose 0.08 uM): 0.172; Z.LYZ.NS (standard z score) (ISC-enriched organoids [1]; Dose 0.40 uM): 1.168; Dose.FC.LYZ.NS (log 2 fold change) (ISC-enriched organoids [1]; Dose 0.40 uM): 0.134; Z.LYZ.NS (standard z score) (ISC-enriched organoids [1]; Dose 2.00 uM): 0.730; Dose.FC.LYZ.NS (log 2 fold change) (ISC-enriched organoids [1]; Dose 2.00 uM): 0.084; Z.LYZ.NS (standard z score) (ISC-enriched organoids [1]; Dose 10.00 uM): −0.607; Dose.FC.LYZ.NS (log 2 fold change) (ISC-enriched organoids [1]; Dose 10.00 uM): −0.070; Dose.FC.LYZ.S (log 2 fold change) (ISC-enriched organoids [2]; Dose 0.08 uM): 0.198; Dose.FC.LYZ.S (log 2 fold change) (ISC-enriched organoids [2]; Dose 0.40 uM): 0.193; Dose.FC.LYZ.S (log 2 fold change) (ISC-enriched organoids [2]; Dose 2.00 uM): 0.082; Dose.FC.LYZ.S (log 2 fold change) (ISC-enriched organoids [2]; Dose 10.00 uM): −0.148; Z.CTG (standard z score) (ISC-enriched organoids [3]; Dose 0.08 uM): 0.978; Dose.FC.CTG (log 2 fold change) (ISC-enriched organoids [3]; Dose 0.08 uM): 0.410; Z.CTG (standard z score) (ISC-enriched organoids [3]; Dose 0.40 uM): 0.799; Dose.FC.CTG (log 2 fold change) (ISC-enriched organoids [3]; Dose 0.40 uM): 0.334; Z.CTG (standard z score) (ISC-enriched organoids [3]; Dose 2.00 uM): 0.869; Dose.FC.CTG (log 2 fold change) (ISC-enriched organoids [3]; Dose 2.00 uM): 0.364; Z.CTG (standard z score) (ISC-enriched organoids [3]; Dose 10.00 uM): 0.216; Dose.FC.CTG (log 2 fold change) (ISC-enriched organoids [3]; Dose 10.00 uM): 0.091
3 | COc1ccc(C(=O)Nc2sc3c(c2C(N)=O)CCCC3)cc1OC [TCS 359] | – | – | – | – | – | – | – | – | – | – | – | – | – | – | – | – | – | – | – | – | Z.LYZ.NS (standard z score) (ISC-enriched organoids [1]; Dose 0.08 uM): 0.742; Dose.FC.LYZ.NS (log 2 fold change) (ISC-enriched organoids [1]; Dose 0.08 uM): 0.085; Z.LYZ.NS (standard z score) (ISC-enriched organoids [1]; Dose 0.40 uM): 0.502; Dose.FC.LYZ.NS (log 2 fold change) (ISC-enriched organoids [1]; Dose 0.40 uM): 0.058; Z.LYZ.NS (standard z score) (ISC-enriched organoids [1]; Dose 2.00 uM): 0.156; Dose.FC.LYZ.NS (log 2 fold change) (ISC-enriched organoids [1]; Dose 2.00 uM): 0.018; Z.LYZ.NS (standard z score) (ISC-enriched organoids [1]; Dose 10.00 uM): −0.072; Dose.FC.LYZ.NS (log 2 fold change) (ISC-enriched organoids [1]; Dose 10.00 uM): −0.008; Dose.FC.LYZ.S (log 2 fold change) (ISC-enriched organoids [2]; Dose 0.08 uM): 0.098; Dose.FC.LYZ.S (log 2 fold change) (ISC-enriched organoids [2]; Dose 0.40 uM): 0.069; Dose.FC.LYZ.S (log 2 fold change) (ISC-enriched organoids [2]; Dose 2.00 uM): −0.006; Dose.FC.LYZ.S (log 2 fold change) (ISC-enriched organoids [2]; Dose 10.00 uM): 0.026; Z.CTG (standard z score) (ISC-enriched organoids [3]; Dose 0.08 uM): 0.358; Dose.FC.CTG (log 2 fold change) (ISC-enriched organoids [3]; Dose 0.08 uM): 0.150; Z.CTG (standard z score) (ISC-enriched organoids [3]; Dose 0.40 uM): 0.598; Dose.FC.CTG (log 2 fold change) (ISC-enriched organoids [3]; Dose 0.40 uM): 0.250; Z.CTG (standard z score) (ISC-enriched organoids [3]; Dose 2.00 uM): 0.119; Dose.FC.CTG (log 2 fold change) (ISC-enriched organoids [3]; Dose 2.00 uM): 0.050; Z.CTG (standard z score) (ISC-enriched organoids [3]; Dose 10.00 uM): −0.212; Dose.FC.CTG (log 2 fold change) (ISC-enriched organoids [3]; Dose 10.00 uM): −0.089
4 | CCn1c2ccccc2c2cc(Nc3ccnc(NCCCN4CCOCC4)n3)ccc21 [EHop-016] | 0.177 | 1.537 | 0.035 | 0.302 | 0.029 | 0.252 | −0.203 | −1.769 | 0.091 | 0.012 | −0.011 | −0.299 | 0.081 | 0.193 | 0.062 | 0.147 | 0.088 | 0.211 | −0.757 | −1.808 | –
